The text below walks through data of US9290541B2, “TCL1 peptides for immunotherapy” (Board of Regents, The University of Texas System, priority 2011, dated 2016).

In assay [1] the test system is autologous FL tumor cells. Description: Mechanism of cytotoxicity of TCL1-specific CTLs against autologous follicular lymphoma cells. Type of assay: cell-based, human. The conditions noted are these: effector:target 20:1; 4 hour chromium-51 release; antibodies 10 μg/ml. How it is done: FIG. 10: Mechanism of cytotoxicity of TCL1-specific CTLs against autologous follicular lymphoma cells. TCL1-specific T cells were generated from PBMC obtained from a FL patient and cultured with autologous FL tumor cells preincubated with or without 10 μg/ml of MHC class I, class II, and isotype control antibodies at a ratio of 20:1 (Effector:Target). A standard 4 hour chromium-51 release assay was performed. MHC class I but not MHC class II or isotype control antibodies inhibited the cytolysis autologous lymphoma cells.

The test system of the next assay is T2 cells. In words: 4-hour 51Cr-release cytotoxicity assay with peptide-pulsed T2 cells. It is filed as cell-based, human. The conditions noted are these: 4-hour 51Cr release. How it is done: (§1) FIGS. 3A-E: TCL1-specific cytotoxic T cells can be generated from normal donors. (FIG. 3A) PBMCs from HLA-A2^+ normal donors were stimulated with overlapping 15-mer peptides spanning the entire length of the TCL1 protein (see Table 2). T cells from each condition were washed and incubated with autologous CD3-depleted PBMC as antigen-presenting cells (APC) in the presence or absence of the corresponding peptide. After 18 hours, the production of IFN-γ was determined in the supernatants by ELISA. Asterisk indicates significant IFN-γ production compared with control (P<0.05). Representative data from one of three normal donors tested is shown. (FIG. 3B) T cell lines generated from HLA-A2^+ normal donors using TCL165-79 peptide were incubated with APC in the presence or absence of the TCL165-79 peptide or control HIV Gag77-85 peptide, and intracellular cytokine assay was performed. The percentage of CD4^+ and CD8^+ T cells producing IFN-γ are shown. (FIG. 3C) TCL165-79 peptide-specific T cells were incubated with T2 cells or EBV-transformed B lymphoblastoid cell lines (IHW1003, IHW1019, IHW1089, and IHW1135) mismatched at their MHC class I locus in the presence of the TCL165-79 peptide or control HIV Gag77-85 peptide. IFN-γ production was determined as in (FIG. 3A). The HLA-A alleles for each of the cell lines are shown. (FIG. 3D, FIG. 3E) A 4-hour ^51Cr-release cytotoxicity assay was performed. TCL165-79 peptide-specific T cells were incubated with T2 cells alone or T2 cells pulsed with TCL165-79 peptide or control HIV Gag77-85 peptide, at various effector:target ratios. For MHC blocking assay, an effector:target ratio of 20:1 was used in the presence or absence of isotype control antibody or blocking antibodies against MHC class I, MHC class II, HLA-A2, or HLA-B and C. All cytotoxicity assays were performed in triplicate wells and mean and standard deviation are shown.
(§2) FIGS. 4A-D: TCL171-78 is the minimal HLA-A*0201-binding peptide. (FIG. 4A) TCL165-79 peptide-specific T cells derived from HLA-A2^+ normal donors were incubated in the presence or absence of T2 cells and TCL165-79 derived truncated peptides (SEQ ID NOS:1-2; SEQ ID NOS:12-17; SEQ ID NOS:3-11; and SEQ ID NO:18) Flu matrix peptide (FMP58-66) and Gag77-85 peptide were used as controls. After 18 hours, the production of IFN-γ was determined in the supernatants by ELISA. (FIG. 4B) T2 cells were incubated with TCL165-79-derived truncated peptides (SEQ ID NOS:1-2; SEQ ID NOS:12-17; SEQ ID NOS:3-11; and SEQ ID NO:18), and the HLA-A2 binding affinity of each peptide was determined by flow cytometry. The T2 binding index was calculated as described in Materials and Methods. […] (FIG. 4D) TCL165-79 peptide-specific CD8^+ T cells or irrelevant T-cell line were stained with TCL171-78 or HIV Gag77-85 tetramers and analyzed by flow cytometry. […]
(§3) FIGS. 6A-E: TCL171-78 peptide-specific T cells can be generated from lymphoma patients. (FIG. 6A) PBMC and tumor-infiltrating lymphocytes (TILs) derived from HLA-A2^+ patients with chronic lymphocytic leukemia (CLL) or follicular lymphoma (FL) were stimulated in vitro with TCL165-79 After five stimulations, IFN-γ production in response to TCL165-79 peptide was determined as in FIG. 3A. […]

In assay [2] the test system is TCL165-79 peptide-specific T cells. Description: IFN-γ ELISA of peptide-specific T cells with peptide-pulsed T2 cells or B lymphoblastoid cell lines. It is filed as cell-based, human. The conditions noted are these: normal donor-derived T cells; 18 hours. As to the method: as §1, with “All cytotoxicity assays were performed in triplicate wells and mean and standard deviation are shown.” left out
as §2, with “(FIG. 4A) TCL165-79 peptide-specific T cells derived from HLA-A2^+ normal donors were incubated in the presence or absence of T2 cells and TCL165-79 derived truncated peptides (SEQ ID NOS:1-2; SEQ ID NOS:12-17; SEQ ID NOS:3-11; and SEQ ID NO:18) Flu matrix peptide (FMP58-66) and Gag77-85 peptide were used as controls.” left out
as §3
In general terms: ELISA stands for enzyme-linked immunosorbent assay.

A further assay deals with CD8+ T cells. Description: Tetramer staining by flow cytometry. It is filed as cell-based, human. Particulars: for percentage of tetramer positive CD8+ T cells, median / percentage of tetramer positive CD8+ T cells, range: two in vitro stimulations with TCL165-79. As to the method: FIGS. 4A-D: TCL171-78 is the minimal HLA-A*0201-binding peptide. (FIG. 4A) TCL165-79 peptide-specific T cells derived from HLA-A2^+ normal donors were incubated in the presence or absence of T2 cells and TCL165-79 derived truncated peptides (SEQ ID NOS:1-2; SEQ ID NOS:12-17; SEQ ID NOS:3-11; and SEQ ID NO:18) Flu matrix peptide (FMP58-66) and Gag77-85 peptide were used as controls. After 18 hours, the production of IFN-γ was determined in the supernatants by ELISA. (FIG. 4B) T2 cells were incubated with TCL165-79-derived truncated peptides (SEQ ID NOS:1-2; SEQ ID NOS:12-17; SEQ ID NOS:3-11; and SEQ ID NO:18), and the HLA-A2 binding affinity of each peptide was determined by flow cytometry. The T2 binding index was calculated as described in Materials and Methods. (FIG. 4C) TCL165-79 (SEQ ID NO:1) peptide-specific T cells were incubated with T2 cells pulsed with TCL165-79-derived truncated peptides (SEQ ID NO:1; SEQ ID NO:8; SEQ ID NO:10; SEQ ID NO:11; SEQ ID NO:18) or control HIV Gag77-85 peptide and a 4-hour ^51Cr-release cytotoxicity assay was performed. The percent specific lysis is shown. (FIG. 4D) TCL165-79 peptide-specific CD8^+ T cells or irrelevant T-cell line were stained with TCL171-78 or HIV Gag77-85 tetramers and analyzed by flow cytometry. The percentage of tetramer positive T cells is shown. Data in panels A-D are representative of three independent experiments each.
FIGS. 6A-E: TCL171-78 peptide-specific T cells can be generated from lymphoma patients. (FIG. 6A) PBMC and tumor-infiltrating lymphocytes (TILs) derived from HLA-A2^+ patients with chronic lymphocytic leukemia (CLL) or follicular lymphoma (FL) were stimulated in vitro with TCL165-79 After five stimulations, IFN-γ production in response to TCL165-79 peptide was determined as in FIG. 3A. (FIG. 6B, FIG. 6E) The cytotoxic function of TCL165-79 peptide-specific T cells generated above was tested against T2 cells pulsed with TCL165-79 peptide or HIV Gag77-85 peptide (FIG. 6B) or primary autologous or allogeneic HLA-A2^+ or HLA-A2^− mantle cell lymphoma (MCL Tu) or FL tumor cells (FL Tu) or tumor-free PBMC from MCL3 and FL5 patients (MCL3-PB and FL5-PB) or HLA-A2^+ MCF-7 cell line (FIG. 6E). (FIG. 6C) The percentage of tetramer positive CD8^+ T cells in each of the TCL1-specific T-cell lines generated from lymphoma patients is shown. (FIG. 6D) The expression of TCL1 in each of the primary lymphoma samples as determined by flow cytometry is shown. All cytotoxicity assays were performed in triplicate wells and mean and standard deviation are shown. CLL1-PB-T: TCL1-specific CTL generated from peripheral blood T cells of CLL patient 1; FL5-PB-T: TCL1-specific CTL generated from peripheral blood T cells of FL patient 5; FL5-TILs-T: TCL1-specific CTL generated from tumor infiltrating T cells of FL patient 5.
FIGS. 7A-B: TCL171-78 peptide-specific T cells are increased in lymphoma patients. PBMCs from HLA-A2^+ normal donors (ND, n=8) or lymphoma patients [chronic lymphocytic leukemia (CLL, n=2), mantle cell lymphoma (MCL, n=5); follicular lymphoma (FL, n=4); diffuse large B-cell lymphoma (n=2); splenic marginal zone B-cell lymphoma (SMZL, n=2)] were stimulated in vitro twice with TCL165-79 peptide and stained with TCL171-78 tetramer or HIV Gag77-85 tetramer. Representative data of the tetramer staining (FIG. 7A) and results from all samples analyzed (FIG. 7B) are shown. P value on the top of graph represents comparison between normal donors and all lymphoma patient samples. P values to the right represent comparison between normal donors and patients from each lymphoma subtype. All P values were calculated by two-tailed Student's t test.
Flow cytometry. For intracellular staining, tumor or normal B cells were first surface stained with CD3 and CD20 and then fixed and permeabilized using BD Biosciences Cytofix/Cytoperm™ Plus Fixation/Permeabilization kit as per manufacturer's instructions. […]

The next assay has as its target T1, HLA-A2 (Homo sapiens, UniProt P04439, D140Y/D185E/D98H/E176V/E277Q/G131W/G231S/I119V/I121R/I166T/I218V/L300P/L318F/N151K/N90K/P208A/P217A/Q86G/Q94H/R138H/R169H/T345S).
T1 construct: endogenous in cells; host or cells: T2 hybridoma cells (TAP-deficient, HLA-A2+)
Description: HLA-A2-binding assay (T2 binding index). The conditions noted are these: T2 cells, 20 μg/ml peptide, 24 hours. How it is done:
as §2
TAP-deficient T2 cells were incubated with 20 μg/ml of peptides and 3 μg/ml of β2-microglobulin (Sigma-Aldrich, Cat # M4890) for 24 hours at 37° C. and 5% CO2 in air. The cells were then stained with anti-HLA-A2 PE antibody (BD Biosciences, Cat #560168), and the level of HLA-A2 expression was determined by flow cytometry. […]

Where [3] appears, read: PBMC of HLA-A2+ lymphoma patients (N=15).

As for `C/C=C/[C@H]1O[C@@](O)([C@@H](C)[C@H](O)[C@H](C)[C@H]2OC(=O)/C(OC)=C/C(C)=C/[C@@H](C)[C@@H](O)[C@@H](CC)[C@@H](O)[C@H](C)C/C(C)=C/C=C/[C@@H]2OC)C[C@@H](O[C@H]2C[C@@H](O)[C@H](OC(N)=O)[C@@H](C)O2)[C@@H]1C` [Concanamycin A], in assay [1], the “inhibition of cytolysis of autologous lymphoma cells by TCL1-specific CTLs” value was “significantly inhibited”.

On to SLLPIMWQL [TCL170-79], for which the “lysis of T2 cells pulsed with truncated peptides by TCL165-79 peptide-specific T cells” value (“lysis of T2 cells pulsed” below) in the assay with T2 cells is given as “specifically lysed”.

In the case of LLPIMWQL [TCL171-78], in assay [2], the “IFN-γ production by TCL165-79 peptide-specific T cells with T2 cells pulsed with truncated peptides” value is on record as “induced significant IFN-γ production”. Moreover, in the assay with CD8+ T cells (setting [3]), the “percentage of tetramer positive CD8+ T cells, median” value was found to be 2.8% and the “percentage of tetramer positive CD8+ T cells, range” value was 0.88-6%. For the same molecule, the “tetramer positive CD8+ T cells” value in the assay on CD8+ T cells (T-cell lines from lymphoma patients, TCL171-78 tetramer) is recorded as 10.8-23%. Further, in the assay with CD8+ T cells (normal donor PBMC (N=8)), the “percentage of tetramer positive CD8+ T cells, median” value amounted to 1.35% and the “percentage of tetramer positive CD8+ T cells, range” value is reported as 0.38-2.2%. Also, the “tetramer positive TCL165-79 peptide-specific CD8+ T cells” value in the assay with CD8+ T cells (normal donor-derived T cell line, TCL171-78 tetramer) worked out at 8.2%. Moreover, the “binding to HLA-A2” value with HLA-A2 is on record as “bound to HLA-A2”. Besides, the “lysis of T2 cells pulsed” value in the assay with T2 cells was “specifically lysed”.

LLPIMWQLY [TCL171-79]: the “lysis of T2 cells pulsed” value in the assay on T2 cells is “specifically lysed”.
